Assay results: patent US6420558B1, “Aminopiperidine derivates as integrin αvβ3 antagonists” (Meiji Seika Kaisha, Ltd., priority 1998, dated 2002)
pIC50: −log10 of the molar value.

What was measured:
[1] = Oral absorption in rats; format: in vivo; settings: data not shown
Description: Therefore, any of the compounds, wherein R^12 represents an alkyl group or a hydrogen atom, can be used in the treatment of the above diseases.

[2] = system: human vascular smooth muscle cells adhering to immobilized human vitronectin; assay: Inhibitory activity against adhesion of human vascular smooth muscle cells to vitronectin; format: cell-based; settings: 1.5 h; human vitronectin-coated plate, 90 min
Method: Inhibitory Activity Against Adhesion of Human Vascular Smooth Muscle Cells to Vitronectin
The adhesion of human vascular smooth muscle cells =+to immobilized human vitronectin was measured in accordance with the method of Liaw et al. (Liaw L, Almeida M, Hart C E, Schwartz S M, and Giachelli C M, Circulation Research, 74 (2), 214-224 (1994)).
A Dulbecco's phosphate buffer (Dulbecco's PBS(−), Nissui Pharmaceutical Co., Ltd.) solution of human plasma-derived vitronectin (CALBIOCHEM) adjusted to a concentration of 4 μg/ml was first added to wells (50 μl/well) of a microplate (Maxisorp, Nunc), and a reaction for immobilization was allowed to proceed at 4° C. overnight. After washing twice with 150 μl of Dulbecco's phosphate buffer, a Dulbecco's phosphate buffer containing 10 mg/ml of bovine serum albumin (SIGMA) was added, followed by blocking at 37° C. for one hr. The assay plate was washed twice with 150 μl of Dulbecco's phosphate buffer.
Separately, human vascular smooth muscle cells cultivated at 37° C. under 5% carbon dioxide in a medium for vascular smooth muscle cells (Clonetics) were separated using a Dulbecco's phosphate buffer containing trypsin-EDTA (GIBCO BRL), washed with Dulbecco's phosphate buffer, and then suspended in a Dulbecco's modified Eagle's basal medium (Nissui Pharmaceutical Co., Ltd.) containing 0.1% bovine serum albumin to a concentration of 5×10^5/ml.
Next, 50 μl of a Dulbecco's modified Eagle's basal medium containing 10 mg/ml of bovine serum albumin with a medicament added thereto was added to the wells of the human vitronectin-coated assay microplate, followed by pre-cultivation under 5% carbon dioxide at 37° C. for 10 min. Thereafter, 50 μl of the medium with human vascular smooth muscle cells suspended therein was added thereto, and the plate was thoroughly stirred. A reaction was allowed to proceed under 5% carbon dioxide at 37° C. for 90 min. The reaction solution containing non-adherent cells were then removed, followed by washing three times with Dulbecco's phosphate buffer. For the adhered cells, 100 μl of a Dulbecco's phosphate buffer containing 4% paraformaldehyde (Wako Pure Chemical Industries, Ltd.) was added, and immobilization was allowed to proceed at room temperature for 10 min. Next, 100 μl of a Dulbecco's phosphate buffer containing 0.5% Toluidine Blue (Croma) and 4% paraformaldehyde was added, and staining was allowed to proceed at room temperature for 5 min, followed by thorough washing with distilled water. The inside of the wells was then air-dried, and a 1% aqueous sodium dodecylsulfate solution was then added to perform cytolysis. The absorbance of the microplate thus obtained was measured at 595 nm. […] The inhibition was calculated by the following equation. IC50 was determined from a primary regression line of the logarithm of each concentration of the test compound and the logarithm of (100−inhibition)/inhibition. [formula]

[3] = system: human platelet aggregation; assay: Human platelet aggregation inhibitory activity (method of Pharmacological Test 1 in WO 94/21599); format: cell-based; settings: human platelets, read-out: inhibition of human platelet aggregation, IC5. value
Method: (§1) GP IIb/IIIa Antagonistic Activity and Human Platelet Aggregation Inhibitory Activity
Human platelet aggregation inhibitory activity was measured for the compounds according to the present invention. The measurement of the human platelet aggregation activity was carried out according to the method described in Pharmacological Test 1 in WO 94/21599.

[4] = molecular target: T1, integrin αvβ3 (vitronectin receptor purified from the human placenta) (Homo sapiens, UniProt P05106+P06756); assay: αvβ3 binding assay (vitronectin-vitronectin receptor binding assay); settings: vitronectin binding to human placenta vitronectin receptor; read-out: integrin αvβ3 antagonistic activity, IC50 value
T1 construct: a vitronectin receptor (protein content: 118 μg/ml) purified from the human placenta; from tissue; host or cells: human placenta
T1 sequence (P06756 31-889 limits assumed): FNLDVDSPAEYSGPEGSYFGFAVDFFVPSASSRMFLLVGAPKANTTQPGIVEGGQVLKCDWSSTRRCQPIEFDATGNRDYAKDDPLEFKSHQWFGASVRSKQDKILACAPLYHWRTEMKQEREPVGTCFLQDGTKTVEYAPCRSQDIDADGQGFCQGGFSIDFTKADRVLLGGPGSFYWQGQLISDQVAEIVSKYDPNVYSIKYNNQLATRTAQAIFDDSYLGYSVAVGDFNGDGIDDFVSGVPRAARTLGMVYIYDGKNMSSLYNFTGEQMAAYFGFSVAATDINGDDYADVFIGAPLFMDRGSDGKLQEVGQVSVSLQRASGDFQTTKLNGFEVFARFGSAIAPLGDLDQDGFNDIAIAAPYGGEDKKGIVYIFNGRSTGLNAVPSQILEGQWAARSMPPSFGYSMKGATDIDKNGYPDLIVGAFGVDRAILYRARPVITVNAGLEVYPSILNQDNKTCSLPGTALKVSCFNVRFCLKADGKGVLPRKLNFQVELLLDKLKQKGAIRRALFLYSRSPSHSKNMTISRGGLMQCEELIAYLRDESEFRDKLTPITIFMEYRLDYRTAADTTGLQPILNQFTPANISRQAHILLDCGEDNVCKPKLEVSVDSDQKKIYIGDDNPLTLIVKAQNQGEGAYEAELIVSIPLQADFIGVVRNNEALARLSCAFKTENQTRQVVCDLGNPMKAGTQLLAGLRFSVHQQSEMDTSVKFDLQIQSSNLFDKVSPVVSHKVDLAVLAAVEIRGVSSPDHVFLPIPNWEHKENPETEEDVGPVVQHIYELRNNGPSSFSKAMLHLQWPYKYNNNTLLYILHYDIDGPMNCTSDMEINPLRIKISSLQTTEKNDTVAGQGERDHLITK
T1 sequence (P06756 891-1048 limits assumed): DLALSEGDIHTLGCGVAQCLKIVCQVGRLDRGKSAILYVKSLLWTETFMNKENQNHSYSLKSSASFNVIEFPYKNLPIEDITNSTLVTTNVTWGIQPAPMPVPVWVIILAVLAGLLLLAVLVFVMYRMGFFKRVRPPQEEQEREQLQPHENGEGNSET
T1 sequence (P05106 27-788): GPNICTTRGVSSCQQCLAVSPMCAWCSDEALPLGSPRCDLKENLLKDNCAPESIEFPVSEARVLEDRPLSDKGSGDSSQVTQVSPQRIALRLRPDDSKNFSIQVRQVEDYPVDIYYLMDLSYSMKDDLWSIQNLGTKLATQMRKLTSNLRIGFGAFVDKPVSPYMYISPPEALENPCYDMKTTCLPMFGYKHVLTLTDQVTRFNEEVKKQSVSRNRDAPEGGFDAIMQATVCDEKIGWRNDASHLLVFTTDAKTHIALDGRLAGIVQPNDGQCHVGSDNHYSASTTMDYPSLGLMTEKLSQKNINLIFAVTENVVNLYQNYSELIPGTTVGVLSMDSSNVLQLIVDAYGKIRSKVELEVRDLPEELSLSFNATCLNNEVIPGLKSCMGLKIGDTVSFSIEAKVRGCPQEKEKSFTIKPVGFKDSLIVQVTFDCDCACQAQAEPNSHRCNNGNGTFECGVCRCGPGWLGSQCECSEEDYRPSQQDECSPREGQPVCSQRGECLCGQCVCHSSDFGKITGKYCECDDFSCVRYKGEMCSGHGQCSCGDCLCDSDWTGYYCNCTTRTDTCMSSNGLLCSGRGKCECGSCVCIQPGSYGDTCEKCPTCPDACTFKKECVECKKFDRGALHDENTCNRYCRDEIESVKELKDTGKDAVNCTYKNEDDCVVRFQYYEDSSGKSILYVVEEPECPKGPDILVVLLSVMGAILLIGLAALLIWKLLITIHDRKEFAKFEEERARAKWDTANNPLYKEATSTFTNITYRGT
Method: Integrin αvβ3 antagonistic activity was measured for the compounds according to the present invention in a vitronectin-vitronectin receptor binding assay system in accordance with the method of Kouns et al. (W. C. Kouns, D. Kirchhofer, P. Hadvary, A. Edenhofer, T. Weller, G. Pfenninger, H. R. Baumgartner, L. K. Jennings and B. Steiner, Blood, 80, 2539-2547 (1992)).
Specifically, a vitronectin receptor (protein content: 118 μg/ml) purified from the human placenta in accordance with the method of Pytela et al. (R. Pytela, M. D. Pierschbacher, S. Argraves, S. Suzuki, and E. Ruoslahti, Method in Enzymology, 144, 475-489 (1987)) was diluted 50 times with TBS (20 mM Tris-HCl, 150 mM NaCl, 1 mM CaCl2, 1 mM MgCl2, pH 7.4), and distributed and coated on wells (50 μl/well) of a plate (Maxisorp, Nunc, 96 well Immuno Plate). The plate was then allowed to stand at 4° C. for 1 day, washed twice with TBS (200 μl/well), and then subjected to blocking with TBS (150 μl/well) containing 1% bovine serum albumin (SIGMA) at 4° C. overnight. After washing twice with TBS (200 μl/well), 50 μl of vitronectin (CALBIOCHEM) adjusted to 0.2 μg/ml by the addition of TBS (TBS-Tween) containing 0.01% Tween-20 was mixed with 50 μl of each test compound adjusted to each concentration in wells, and a reaction was allowed to proceed at room temperature for 4 hr. After the completion of the reaction, the wells were washed five times with TBS-Tween. A solution prepared by diluting anti-vitronectin rabbit antiserum (CHEMICON) 500 times with TBS-Tween was added as a primary antibody in an amount of 50 μl/well, and a reaction was allowed to proceed at room temperature for 1.5 hr. After washing five times with 200 μl/well of TBS-Tween, a peroxidase (POD)-labeled anti-rabbit IgG antibody solution (CAPPEL) diluted 500 times with TBS-Tween was added as a secondary antibody in an amount of 50 μl/well, and a reaction was allowed to proceed at room temperature for 1.5 hr. After washing five times with TBS-Tween (200 μl/well), ABTS (2,2′-azino-bis(3-ethylbenzthiazoline-6-sulfonic acid), SIGMA) was adjusted to 1 mg/ml by the addition of a ten-fold diluted POD-buffer (ZYMED), and added in an amount of 50 μl/well, and a reaction was allowed to proceed for 5 to 10 min. A 0.1 M citric acid buffer (pH 4.3) containing 0.05% NaN3 was added in an amount of 50 μl/well to stop the reaction, followed by the measurement of the absorbance at 415 nm with a microplate reader (MTP 32, Corona Electric) (reference: 675 nm). The total binding was defined as the absorbance after a reaction using 50 μl of TBS-Tween instead of the test compound, and the non-specific binding (100% inhibition) was defined as the absorbance after a reaction using 50 μl of TBS-Tween containing 2×10^−3 M RGDS. The inhibition was calculated by the following equation: [formula]
IC50 was determined from a primary regression line of the logarithm of each concentration of the test compound and the logarithm of (100−inhibition)/inhibition.

[5] = molecular target: GP IIb/IIIa (Homo sapiens, UniProt P05106+P08514); assay: GP IIb/IIIa antagonistic activity (method of Pharmacological Test 2 in WO 94/21599); format: binding
Sequence of GP IIb/IIIa (P08514 32-887 limits assumed): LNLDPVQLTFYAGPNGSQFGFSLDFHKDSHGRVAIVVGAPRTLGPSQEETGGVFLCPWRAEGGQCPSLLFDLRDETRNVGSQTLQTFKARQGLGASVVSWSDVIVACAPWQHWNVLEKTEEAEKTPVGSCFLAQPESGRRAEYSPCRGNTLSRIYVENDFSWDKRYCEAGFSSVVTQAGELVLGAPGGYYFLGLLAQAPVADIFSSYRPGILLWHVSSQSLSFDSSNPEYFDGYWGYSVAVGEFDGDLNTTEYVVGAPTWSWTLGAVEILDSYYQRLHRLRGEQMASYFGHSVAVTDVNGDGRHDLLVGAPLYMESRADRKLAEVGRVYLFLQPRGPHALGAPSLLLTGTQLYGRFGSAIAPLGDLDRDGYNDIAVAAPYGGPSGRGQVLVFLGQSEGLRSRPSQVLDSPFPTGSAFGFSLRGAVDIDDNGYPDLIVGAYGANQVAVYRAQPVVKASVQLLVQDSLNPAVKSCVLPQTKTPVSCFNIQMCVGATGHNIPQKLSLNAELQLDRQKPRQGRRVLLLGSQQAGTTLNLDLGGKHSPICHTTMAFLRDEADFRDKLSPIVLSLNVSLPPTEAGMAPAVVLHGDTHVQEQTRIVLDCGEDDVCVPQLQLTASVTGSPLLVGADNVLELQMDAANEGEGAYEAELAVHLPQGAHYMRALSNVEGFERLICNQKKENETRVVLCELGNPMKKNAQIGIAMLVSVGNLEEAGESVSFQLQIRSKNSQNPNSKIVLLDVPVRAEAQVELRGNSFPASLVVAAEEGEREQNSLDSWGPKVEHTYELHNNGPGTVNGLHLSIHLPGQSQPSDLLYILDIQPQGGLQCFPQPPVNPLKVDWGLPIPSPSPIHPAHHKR
Sequence of GP IIb/IIIa (P08514 891-1039 limits assumed): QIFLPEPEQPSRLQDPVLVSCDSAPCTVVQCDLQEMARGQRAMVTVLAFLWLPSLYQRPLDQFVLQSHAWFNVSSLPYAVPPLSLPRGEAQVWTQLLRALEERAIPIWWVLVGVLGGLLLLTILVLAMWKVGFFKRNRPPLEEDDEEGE
Sequence of GP IIb/IIIa (P05106 27-788): as the sequence (P05106 27-788) above
Method: as §1
GP IIb/IIIa antagonistic activity was measured for the compounds according to the present invention. The measurement of the GP IIb/IIIa antagonistic activity was carried out according to the method described in Pharmacological Test 2 in WO 94/21599.

SMILES	oral absorption [1]	pIC50 [2]	pIC50 [3]	pIC50 [4]	pIC50 [5]
O=C(NC[C@H](NS(=O)(=O)c1ccccc1)C(=O)O)c1ccc(N2CCC(Nc3ncccn3)CC2)c(Cl)c1 [Example 59, (2S)-Benzenesulfonylamino-3-[3-chloro-4-{4-(pyrimidin-2-ylamino)piperidin-1-yl}benzoylamino]-propionic acid]	had oral absorption	–	–	–	–
O=C(NC[C@H](NS(=O)(=O)c1ccccc1)C(=O)O)c1ccc(N2CCC(NC3=NCCCN3)CC2)c(Cl)c1 [Example 60, (2S)-Benzenesulfonylamino-3-[3-chloro-4-{4-(1,4,5,6-tetrahydropyrimidin-2-ylamino)piperidin-1-yl}-benzoylamino]propionic acid]	–	≥ 7.15	≥ 7.05	≥ 9.00	≥ 9.00
